Test results taken from ChEMBL document CHEMBL4622852, “Design and synthesis of novel proline based factor XIa selective inhibitors as leads for potential new anticoagulants” (Bioorg Med Chem Lett, 2020).
The source made the active and inactive calls. No cut-off for these calls is given here.

Key:
Coagulation factor XI [1] = biological target: T1, Coagulation factor XI (Homo sapiens, UniProt P03951); test: Inhibition of factor 11a (unknown origin)
Prothrombin = Prothrombin (Homo sapiens, UniProt P00734); test: Inhibition of thrombin (unknown origin)
Coagulation factor X = Coagulation factor X (Homo sapiens, UniProt P00742); test: Inhibition of factor 10a (unknown origin)
Chain of Coagulation factor X (P00742 41-179 limits assumed): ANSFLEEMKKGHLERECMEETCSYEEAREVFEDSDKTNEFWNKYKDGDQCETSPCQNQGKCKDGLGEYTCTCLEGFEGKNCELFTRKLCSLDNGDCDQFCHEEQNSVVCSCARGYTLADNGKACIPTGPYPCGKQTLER
Chain of Coagulation factor X (P00742 235-488 limits assumed): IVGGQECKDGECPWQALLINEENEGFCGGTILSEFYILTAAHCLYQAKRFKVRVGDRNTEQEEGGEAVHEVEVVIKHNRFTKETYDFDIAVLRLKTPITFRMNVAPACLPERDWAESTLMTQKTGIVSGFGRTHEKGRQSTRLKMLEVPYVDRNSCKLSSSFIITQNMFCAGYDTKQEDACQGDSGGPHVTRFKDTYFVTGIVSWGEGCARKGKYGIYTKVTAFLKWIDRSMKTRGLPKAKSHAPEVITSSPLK

Coagulation factor VII = biological target: T2, Coagulation factor VII (Homo sapiens, UniProt P08709); test: (§1) Inhibition of factor 7a (unknown origin)
T2 sequence (P08709 whole entry): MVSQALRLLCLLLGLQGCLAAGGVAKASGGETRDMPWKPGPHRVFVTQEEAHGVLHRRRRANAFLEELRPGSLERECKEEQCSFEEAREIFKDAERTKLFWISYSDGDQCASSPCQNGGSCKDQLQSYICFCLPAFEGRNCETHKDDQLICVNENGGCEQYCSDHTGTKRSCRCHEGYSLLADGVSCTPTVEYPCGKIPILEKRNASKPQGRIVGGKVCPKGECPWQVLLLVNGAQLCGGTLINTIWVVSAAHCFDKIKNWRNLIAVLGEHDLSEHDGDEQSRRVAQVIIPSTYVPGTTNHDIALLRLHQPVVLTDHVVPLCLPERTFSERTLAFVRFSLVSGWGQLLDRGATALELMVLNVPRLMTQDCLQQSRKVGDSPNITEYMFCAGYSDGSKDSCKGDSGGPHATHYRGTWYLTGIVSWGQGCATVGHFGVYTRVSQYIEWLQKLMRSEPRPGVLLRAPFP

Trypsin = Trypsin (Homo sapiens, UniProt P07477+P07478+P35030); test: Inhibition of trypsin (unknown origin); type: protein assay
Coagulation factor IX = Coagulation factor IX (Homo sapiens, UniProt P00740); test: Inhibition of factor 9a (unknown origin)
Chain of Coagulation factor IX (P00740 47-191 limits assumed): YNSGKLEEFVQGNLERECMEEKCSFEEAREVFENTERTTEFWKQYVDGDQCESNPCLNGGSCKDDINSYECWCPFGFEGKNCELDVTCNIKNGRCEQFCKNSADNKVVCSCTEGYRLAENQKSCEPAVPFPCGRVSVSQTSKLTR
Chain of Coagulation factor IX (P00740 227-461 limits assumed): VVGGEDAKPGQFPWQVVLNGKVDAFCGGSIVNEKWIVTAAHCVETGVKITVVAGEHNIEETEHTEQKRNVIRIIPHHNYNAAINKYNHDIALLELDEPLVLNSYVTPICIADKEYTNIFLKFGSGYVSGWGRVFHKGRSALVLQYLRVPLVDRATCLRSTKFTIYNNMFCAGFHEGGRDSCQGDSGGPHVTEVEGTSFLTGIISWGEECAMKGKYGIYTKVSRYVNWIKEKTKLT

Coagulation factor XII = biological target: T3, Coagulation factor XII (Homo sapiens, UniProt P00748); test: Inhibition of factor 12a (unknown origin)
T3 sequence (P00748 whole entry): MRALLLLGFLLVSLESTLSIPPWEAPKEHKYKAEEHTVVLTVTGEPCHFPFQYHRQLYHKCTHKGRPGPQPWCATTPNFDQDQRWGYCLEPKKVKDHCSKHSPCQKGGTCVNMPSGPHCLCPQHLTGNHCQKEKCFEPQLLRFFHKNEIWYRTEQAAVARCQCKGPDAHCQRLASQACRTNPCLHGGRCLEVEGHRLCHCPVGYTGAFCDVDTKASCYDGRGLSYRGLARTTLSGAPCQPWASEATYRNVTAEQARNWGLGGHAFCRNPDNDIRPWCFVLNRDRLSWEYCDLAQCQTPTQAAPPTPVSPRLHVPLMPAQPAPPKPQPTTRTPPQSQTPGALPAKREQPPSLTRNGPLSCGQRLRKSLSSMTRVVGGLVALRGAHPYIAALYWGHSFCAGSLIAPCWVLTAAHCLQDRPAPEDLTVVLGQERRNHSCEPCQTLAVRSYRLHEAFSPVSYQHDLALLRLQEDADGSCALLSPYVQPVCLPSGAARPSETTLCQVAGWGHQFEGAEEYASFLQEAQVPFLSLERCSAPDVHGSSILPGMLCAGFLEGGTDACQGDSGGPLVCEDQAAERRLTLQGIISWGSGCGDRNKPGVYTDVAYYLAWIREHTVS

Coagulation factor XI [2] = biological target: T1, Coagulation factor XI; test: Inhibition of factor 11a (unknown origin) at 10 uM relative to control
[3] = biological target: T4, Coagulation factor VII (Homo sapiens) (UniProt P08709); test: as §1
T4 sequence (whole entry): T2 sequence (P08709 whole entry)

T1 sequence (P03951 19-387 limits assumed): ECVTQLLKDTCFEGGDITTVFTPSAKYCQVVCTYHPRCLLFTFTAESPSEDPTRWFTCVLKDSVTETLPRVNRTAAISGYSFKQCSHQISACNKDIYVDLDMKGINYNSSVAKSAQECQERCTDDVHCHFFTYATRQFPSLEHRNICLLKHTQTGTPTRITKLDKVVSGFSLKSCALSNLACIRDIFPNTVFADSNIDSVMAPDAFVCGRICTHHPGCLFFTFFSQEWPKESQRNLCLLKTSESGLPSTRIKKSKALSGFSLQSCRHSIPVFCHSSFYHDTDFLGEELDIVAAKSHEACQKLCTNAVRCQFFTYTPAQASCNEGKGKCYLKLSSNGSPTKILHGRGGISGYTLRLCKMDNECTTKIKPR
T1 sequence (P03951 388-625 limits assumed): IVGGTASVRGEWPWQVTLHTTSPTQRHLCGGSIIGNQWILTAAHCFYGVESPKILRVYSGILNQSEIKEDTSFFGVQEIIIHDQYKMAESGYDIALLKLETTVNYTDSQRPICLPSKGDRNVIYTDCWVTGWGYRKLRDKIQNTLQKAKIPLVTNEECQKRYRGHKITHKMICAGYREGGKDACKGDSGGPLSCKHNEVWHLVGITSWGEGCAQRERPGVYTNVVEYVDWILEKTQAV

Compound | IC50 (Coagulation factor XI [1]) [nM] | IC50 (Prothrombin) [nM] | also measured
CC(C)C[C@@H](NC1CCCCC1)C(=O)N1C[C@@H](C(F)(F)F)C[C@H]1C(=O)NCc1ccc2c(N)nccc2c1 | 76 | > 5000 | 
CC[C@H](C)[C@@H](NC1CCCCC1)C(=O)N1CCC[C@H]1C(=O)NCc1ccc2c(N)nccc2c1 | 347 |  | 
Nc1nccc2cc(CNC(=O)[C@@H]3CCCN3C(=O)[C@@H](CC3CC3)NC3CCCCC3)ccc12 | 98 | 6 | 
CC(C)C[C@@H](NC1CCC1)C(=O)N1CCC[C@H]1C(=O)NCc1ccc2c(N)nccc2c1 | 3310 | 44 | 
CC[C@@H](C)[C@@H](NC1CCCCC1)C(=O)N1C[C@@](C)(C#N)C[C@H]1C(=O)NCc1ccc2c(N)nccc2c1 | 28 | 289 | IC50 (Coagulation factor X): 2740 nM; IC50 (Coagulation factor VII): 1130 nM; IC50 (Trypsin): 3371 nM; IC50 (Coagulation factor IX): > 10000 nM; IC50 (Coagulation factor XII): 7290 nM
CC[C@@H](C)[C@@H](NC1CCCCC1)C(=O)N1C[C@@H](O)C[C@H]1C(=O)NCc1ccc2c(N)nccc2c1 | 21 | 309 | IC50 (Coagulation factor X): 136 nM; IC50 (Coagulation factor VII): 993 nM; IC50 (Trypsin): 824 nM; IC50 (Coagulation factor IX): 8330 nM; IC50 (Coagulation factor XII): 341 nM
CO[C@H]1C[C@@H](C(=O)NCc2ccc3c(N)nccc3c2)N(C(=O)[C@@H](CC(C)C)NC2CCCCC2)C1 | 263 | > 5000 | 
O=C(NCc1cc(Cl)ccc1-n1cnnn1)[C@@H]1CCCN1C(=O)[C@@H](CC1CCCCC1)NC1CCCCC1 | > 30000 |  | 
CC(C)C[C@@H](NC1CCOCC1)C(=O)N1CCC[C@H]1C(=O)NCc1ccc2c(N)nccc2c1 | 1350 | 281 | 
CC[C@@H](C)[C@@H](NC1CCCCC1)C(=O)N1C[C@](O)(CC)C[C@H]1C(=O)NCc1ccc2c(N)nccc2c1 | 22 | 92 | IC50 (Coagulation factor X): 93 nM; IC50 (Coagulation factor VII): 646 nM; IC50 (Trypsin): 410 nM; IC50 (Coagulation factor IX): > 10000 nM; IC50 (Coagulation factor XII): 426 nM
CC(C)C[C@@H](NC1CCCCC1)C(=O)N1C[C@@H](C)C[C@H]1C(=O)NCc1ccc2c(N)nccc2c1 | 2340 |  | 
CC(C)CN[C@H](CC(C)C)C(=O)N1CCC[C@H]1C(=O)NCc1ccc2c(N)nccc2c1 | 2690 | 37 | 
CC(C)C[C@@H](NC1CCCCC1)C(=O)N1C[C@@H](F)C[C@H]1C(=O)NCc1ccc2c(N)nccc2c1 | 437 | > 5000 | 
CC(C)C[C@@H](NC1CCC(F)(F)CC1)C(=O)N1CCC[C@H]1C(=O)NCc1ccc2c(N)nccc2c1 | 417 | 120 | 
Nc1nccc2cc(CNC(=O)[C@@H]3CCCN3C(=O)[C@H](NC3CCCCC3)C3CCCCC3)ccc12 | 91 | 6 | 
Nc1nccc2cc(CNC(=O)[C@@H]3CCCN3C(=O)[C@H](NC3CCCCC3)C3CCOCC3)ccc12 | 224 | 2 | 
CC[C@@H](C)[C@@H](NC(C)C(F)F)C(=O)N1C[C@@](C)(O)C[C@H]1C(=O)NCc1ccc2c(N)nccc2c1 (stereo partly specified) | 77 | 3630 | IC50 (Coagulation factor X): 798 nM; IC50 (Coagulation factor VII): 2760 nM; IC50 (Trypsin): 4034 nM; IC50 (Coagulation factor IX): > 10000 nM; IC50 (Coagulation factor XII): > 10000 nM
Cc1cc2cc(CNC(=O)[C@@H]3CCCN3C(=O)[C@@H](CC3CCCCC3)NC3CCCCC3)ccc2c(N)n1 |  |  | inhibition (Coagulation factor XI [2]): 61%
CC(C)C[C@@H](NC1CCCCC1)C(=O)N1CCCC[C@H]1C(=O)NCc1ccc2c(N)nccc2c1 | 138 | 4 | 

Compound | IC50 (Coagulation factor XI [1]) [nM] | IC50 (Prothrombin) [nM] | also measured
CCS(=O)(=O)N[C@H](CC(C)C)C(=O)N1CCC[C@H]1C(=O)NCc1ccc2c(N)nccc2c1 | 794 | 24 | 
CC[C@@H](C)[C@@H](NC1CCCCC1)C(=O)N1C[C@@](C)(O)C[C@H]1C(=O)NCc1ccc2c(N)nccc2c1 | 12 | 218 | IC50 (Coagulation factor X): 49 nM; IC50 (Coagulation factor VII): 461 nM; IC50 (Trypsin): 547 nM; IC50 (Coagulation factor IX): 7830 nM; IC50 (Coagulation factor XII): 241 nM
CC(C)C[C@@H](NC1CCCC1)C(=O)N1CCC[C@H]1C(=O)NCc1ccc2c(N)nccc2c1 | 1380 | 38 | 
CC(C)C[C@@H](NC1CCCCC1)C(=O)N1C[C@@H](O)C[C@H]1C(=O)NCc1ccc2c(N)nccc2c1 | 100 | 1000 | 
CC(C)C[C@@H](NC1CCCCC1)C(=O)N1CCC[C@H]1C(=O)NCc1ccc2c(N)nccc2c1 | 60 | 5 | 
CC(C)C[C@@H](NC(C)C(F)F)C(=O)N1CCC[C@H]1C(=O)NCc1ccc2c(N)nccc2c1 (stereo partly specified) | 339 | 95 | 
Nc1ncnc2cc(CNC(=O)[C@@H]3CCCN3C(=O)[C@@H](CC3CCCCC3)NC3CCCCC3)ccc12 |  |  | inhibition (Coagulation factor XI [2]): 10%
CC[C@@H](C)[C@@H](NC1CCCCC1)C(=O)N1CCC[C@H]1C(=O)NCc1ccc2c(N)nccc2c1 | 16 |  | 
CC(C)C[C@@H](NC1CCC(C(F)(F)F)CC1)C(=O)N1CCC[C@H]1C(=O)NCc1ccc2c(N)nccc2c1 (stereo partly specified) | 490 | 174 | 
CC[C@@H](C)[C@@H](NS(=O)(=O)Cc1ccc(Cl)cc1)C(=O)N1C[C@@](C)(O)C[C@H]1C(=O)NCc1ccc2c(N)nccc2c1 | 15 | 370 | IC50 (Coagulation factor X): 78 nM; IC50 (Coagulation factor VII): 2020 nM; IC50 (Trypsin): 2020 nM; IC50 (Coagulation factor IX): > 20000 nM; IC50 (Coagulation factor XII): > 30000 nM
CC[C@@H](C)[C@@H](NS(=O)(=O)Cc1ccc(C(F)(F)F)cc1)C(=O)N1C[C@@](C)(O)C[C@H]1C(=O)NCc1ccc2c(N)nccc2c1 | 46 | 521 | IC50 (Coagulation factor X): 328 nM; IC50 (Coagulation factor VII): 2780 nM; IC50 (Trypsin): 2912 nM; IC50 (Coagulation factor IX): > 30000 nM; IC50 (Coagulation factor XII): > 30000 nM
Nc1nccc2cc(CNC(=O)[C@@H]3CCCN3C(=O)[C@@H](CC3CCCCC3)NC3CCCCC3)ccc12 | 160 | 1 | inhibition (Coagulation factor X): Active; inhibition [3]: Active; inhibition (Coagulation factor IX): Active
CC(C)C[C@@H](NC1CCCCC1)C(=O)N1CC[C@H]1C(=O)NCc1ccc2c(N)nccc2c1 | 1100 | 3 | 
CC[C@@H](C)[C@@H](NC1CCC(F)(F)CC1)C(=O)N1C[C@](O)(CC)C[C@H]1C(=O)NCc1ccc2c(N)nccc2c1 | 88 | 1190 | IC50 (Coagulation factor X): 652 nM; IC50 (Coagulation factor VII): 3800 nM; IC50 (Trypsin): 2701 nM; IC50 (Coagulation factor IX): > 30000 nM; IC50 (Coagulation factor XII): > 10000 nM
CC[C@@H](C)[C@@H](NS(=O)(=O)Cc1ccc(Cl)cc1)C(=O)N1C[C@@](C)(C#N)C[C@H]1C(=O)NCc1ccc2c(N)nccc2c1 | 10 | 43 | IC50 (Coagulation factor X): 829 nM; IC50 (Coagulation factor VII): 285 nM; IC50 (Trypsin): 2526 nM; IC50 (Coagulation factor IX): > 30000 nM; IC50 (Coagulation factor XII): > 20000 nM
CC(C)[C@@H](NC1CCCCC1)C(=O)N1CCC[C@H]1C(=O)NCc1ccc2c(N)nccc2c1 | 234 | 7 | 
Nc1ncnc2oc(CNC(=O)[C@@H]3CCCN3C(=O)[C@@H](CC3CCCCC3)NC3CCCCC3)cc12 |  |  | inhibition (Coagulation factor XI [2]): 8%
CCC[C@@H](NC1CCCCC1)C(=O)N1CCC[C@H]1C(=O)NCc1ccc2c(N)nccc2c1 | 171 | 9 | 
CC(C)C[C@@H](NC1CCCCC1)C(=O)N1C[C@@](C)(O)C[C@H]1C(=O)NCc1ccc2c(N)nccc2c1 | 49 |  | 
